In patent publication US5451518A, “Purified human ceramide-activated protein kinase” (Sloan-Kettering Institute for Cancer Research, priority 1992, dated 1995):
“Also recorded” adds a separate entry of the source.

Key:
EL-4 cells [1] = test: Phosphatidylcholine content in EL-4 cells; assay type: cell-based, murine; conditions: IL-1β
[2] = test system: human natural killer-like cell line, YT; test: Ceramide generation in YT cells; assay type: cell-based; conditions: preliminary studies
[3] = test system: ceramide-activated protein kinase; test: Ceramide-activated protein kinase activity in EL-4 cell-free system; assay type: biochemical, murine; conditions: IL-1β
Protocol: (§1) Thereafter, supernates (300 μg incubation^-1 in 25 μl ) were added to a reaction mixture (total volume 250 μl ) as described in FIG. 14. For studies measuring lipid levels, incubations were stopped by extraction of lipids into an organic phase and resolved as described in FIGS. 12A, 12B and 13. For studies measuring kinase activity, incubations contained EGFR peptide and [^32 P]ATP, and phosphorylated peptide was quantified as described in FIG. 14. Background activity was subtracted from each point. Values (mean) represent data from two experiments for sphingomyelin performed in triplicate, three experiments for ceramide performed in triplicate, and five experiments for ceramide-activated protein kinase activity performed in duplicate.
(§2) Early kinetics of activation of a potential signaling system provide some support that the pathway might be involved in the signaling process. However, signal transduction pathways are highly regulated and often interrelated (70). […] To provide additional support for tight coupling of the sphingomyelin pathway to activation of the IL-1β receptor, studies were performed with subcellular fractions derived from EL-4 cells. […] These effects were quantitatively similar to those determined in the intact cells.

[4] = test system: proline-directed protein kinase activities other than ceramide-activated protein; test: Cytosolic kinase activity toward EGFR peptide in EL-4 cells; assay type: cell-based, murine
[5] = test system: ceramide-activated protein kinase
Protocol: Homogenates were centrifuged at 500×g for 5 minutes to remove nuclei and at 200,000×g for 30 minutes to prepare microsomal membranes. Membranes were resuspended into homogenizing buffer (2.2 μg membrane protein μl^-1). For assay of kinase activity, the reaction mixture contained 20 μl of microsomal membrane, 40 μl EGFR peptide (4 mg ml^-1 in 25 mM Hepes, pH 7.4) and 100 μl buffer (50 mM HEPES, pH 7.4, 20 mM MgCl2) (40). Phosphorylation was initiated at 22° C. by addition of 40 μl [γ-^32 P] ATP (100 μM final concentration) and terminated at the indicated times by addition of 40 μl of 0.5M ATP in 90% formic acid. Phosphorylated peptide was eluted from a C18 Sep pak cartridge (Millipore), lyophilized, and resolved by C18 reverse phase HPLC using a linear gradient of acetonitrile. […] All assays were performed under conditions determined as linear for time and enzyme concentration. Enzyme activity was determined from the percent conversion of substrate to product and the specific radioactivity of [γ-^32 P] ATP. […] Values (mean ± range) represent duplicate determinations from two experiments.
Activity was measured by the transfer of ^32 P from the γ-position of ATP to EGFR peptide (AA 663-681 of the EGFR). The effect of IL-1β on kinase activity was determined using microsomal membranes derived from cells stimulated with IL-1β.

protein kinase C = test: Protein kinase C activity by phosphorylation of lysine-rich histone in EL-4 cells; assay type: cell-based, murine; conditions: membrane and cytosolic fractions
EL4 cells = conditions: 24 h
EL-4 cells [6] = test: Sphingomyelin levels in intact EL-4 cells; assay type: cell-based, murine
Protocol: (§3) Time course (FIG. 12A) and dose response (FIG. 12B). Cells were grown to growth arrest (1-1.5×10^6 cells ml^-1) in DME/Ham's F12 medium (1:1, v/v) containing 10% horse serum and for 48 hours [^3 H]choline (1 μCi ml^-1). On the day of an experiment, cells were resuspended back into the same medium at 10×10^6 cells ml^-1 and stimulated with 40 ng ml^-1 IL-1β for the indicated times (FIG. 12A) or for 30 minutes with increasing concentrations of IL-1β (FIG. 12B). Human IL-1β may be obtained using methods well knownto those skilled in the art. Reactions were terminated with CHCl3 :CH3 OH:HCl (100:100:1) containing 10 mM EDTA (82). Lipids in the organic phase extract were dried under N2 and subjected to mild alkaline hydrolysis (0.1M methanolic KOH for 1 hour at 37° C.) to remove glycerophospholipids. Spingomyelin was resolved by thin-layer chromatography (TLC) using CHCl3 :CH3 OH:CH3 COOH:H2 O (60:30:8:5) as solvent, identified by iodine vapor staining, and quantified by liquid scintillation spectrometry. As previously reported, the use of [^3 H]choline as a measure of sphingomyelin content was validated by simultaneous phospholipid phosphorus measurements (62). Each value represents the mean ± SEM of triplicate determinations from four experiments in (FIG. 12A), and one representative of four similar studies performed in triplicate in (FIG. 12B).
The murine thymoma EL-4 cell line is a well-defined IL-1 responsive cell line that expresses functional IL-1 receptors (61, 62). Upon stimulation with IL-1, these cells up-regulate the IL-2 receptor and secrete IL-2 (62). Initial studies were designed to investigate the effects of IL-1β on cellular sphingomyelin content. Cells, grown in Dulbecco's Modified Eagle's (DME)/Ham's F-12 medium containing 10% horse serum and [^3 H]choline (1 μCi ml^-1), were resuspended back into the same medium at 10×10^6 cells ml^-1 and stimulated with IL-1β. IL-1β is commercially available.

EL-4 cells [7] = test: Ceramide levels in intact EL-4 cells; assay type: cell-based, murine
Protocol: as §3
Cells were stimulated as in FIGS. 12A and 12B with IL-1β (40 ng ml^-1) and ceramide contained within the organic phase extract quantified enzymatically using the E. coli diacylglycerol kinase reaction (57). Lipids were resolved by TLC using CHCl3 :CH3 OH:CH3 COOH (65/15/5) as solvent, autoradiographed and quantified by liquid scintillation spectrometry. Each value represents the mean ± SEM of triplicate determinations from 10 experiments.

[8] = test system: ceramide (EL-4 nuclei-free supernate); test: Ceramide levels in EL-4 cell-free system; assay type: biochemical, murine; conditions: IL-1β, n=6, p<0.005 vs. control
Protocol: as §1, §2

[9] = test system: sphingomyelin (EL-4 nuclei-free supernate); test: Sphingomyelin levels in EL-4 cell-free system; assay type: biochemical, murine; conditions: IL-1β, n=10, p<0.005 vs. control
Protocol: as §1, §2

## IL-1β: Human IL-1β
EL-4 cells [1]
  phosphatidylcholine content: unchanged
[2]
  generation of ceramide in YT cells: induces rapid generation of ceramide
[3]
  ceramide-activated protein kinase activity (in words): Ceramide-activated protein kinase activity also increased
[4]
  cytosolic kinase activity (in words): not enhanced
[5]; 10 ng ml^-1, 2 minutes, from 5
  kinase activity after IL-1β: 11 pmol per minute per milligram (pmol min^-1 mg^-1)
[5]; IL-1β
  concentration for maximal effect, kinase activity: 10 ng/mL
  effective concentration, kinase activity: 0.03 ng/mL
  effective dose (ED50), kinase activity: ≈ 2 ng ml^-1
[5]; IL-1β 10 ng ml^-1
  time at which increase in kinase activity was detectable: 30 s
[5]; IL-1β 10 ng ml^-1, 2 minutes
  increase in kinase activity: 2.1 -fold of control
[5]; IL-1β 10 ng ml^-1, p<0.005
  time to maximal kinase activity: 2 min
Protein kinase C
  protein kinase C activity (in words): not enhanced in either membrane or cytosolic fractions
EL4 cells
  IL-2 secretion in combination with TPA (in words): stimulated secretion maximally
EL4 cells; Table I, TPA 20 ng ml^-1, mean ± range, nd = not detectable
  IL-2 secretion, ±TPA: 261 ± 2
EL-4 cells [6]; 40 ng ml^-1, 30 minutes, baseline 800±14, mean ± SEM, p<0.005
  sphingomyelin content after IL-1β: 648±16 pmol 10^6 cells^-1
EL-4 cells [6]; IL-1β 40 ng ml^-1
  time at which sphingomyelin reduction was detectable: ≤ 2 min
EL-4 cells [6]; IL-1β, 30 minutes
  concentration for maximal effect, sphingomyelin: 10 ng/mL
  effective concentration, sphingomyelin: 0.01 ng/mL
  effective dose (ED50), sphingomyelin hydrolysis: ≈ 2 ng ml^-1
EL-4 cells [6]; intact EL-4
  effect on sphingomyelin (in words): rapid reduction in sphingomyelin
EL-4 cells [7]; EL-4, maximally effective concentrations (n=5), SMase 1×10^-3 U ml^-1
  ceramide response (in words): elevation in ceramide levels
EL-4 cells [7]; IL-1β, 2 minutes, from 360, p<0.005
  ceramide content: 403 pmol 10^6 cells^-1
EL-4 cells [7]; IL-1β, 15 minutes, from 360
  maximum ceramide content: 450 pmol 10^6 cells^-1
EL-4 cells [7]; IL-1β, n=4
  time at which increase in ceramide content was evident: ≤ 30 s
[8]
  increase in ceramide content (in words): quantitative increase in ceramide content; also recorded: detected at i minute
[9]
  reduction in sphingomyelin content (in words): rapid reduction in sphingomyelin content; also recorded: detected at i minute
